According to ChEMBL document CHEMBL5465560, “Selectivity Literature for EUbOPEN Chemogenomic Library” (2024):

What was measured:
[1] = biological target: Macrophage-stimulating protein receptor (Homo sapiens, UniProt Q04912); assay: Selectivity interaction (KinomeScan (DiscoverX)) EUB0000595a MST1R; conditions: at 10 µM
[2] = biological target: T1, Serine/threonine-protein kinase DCLK3 (Homo sapiens) (UniProt Q9C098); assay: Selectivity interaction (KinomeScan (DiscoverX)) EUB0000045b DCLK3
T1 sequence (whole entry): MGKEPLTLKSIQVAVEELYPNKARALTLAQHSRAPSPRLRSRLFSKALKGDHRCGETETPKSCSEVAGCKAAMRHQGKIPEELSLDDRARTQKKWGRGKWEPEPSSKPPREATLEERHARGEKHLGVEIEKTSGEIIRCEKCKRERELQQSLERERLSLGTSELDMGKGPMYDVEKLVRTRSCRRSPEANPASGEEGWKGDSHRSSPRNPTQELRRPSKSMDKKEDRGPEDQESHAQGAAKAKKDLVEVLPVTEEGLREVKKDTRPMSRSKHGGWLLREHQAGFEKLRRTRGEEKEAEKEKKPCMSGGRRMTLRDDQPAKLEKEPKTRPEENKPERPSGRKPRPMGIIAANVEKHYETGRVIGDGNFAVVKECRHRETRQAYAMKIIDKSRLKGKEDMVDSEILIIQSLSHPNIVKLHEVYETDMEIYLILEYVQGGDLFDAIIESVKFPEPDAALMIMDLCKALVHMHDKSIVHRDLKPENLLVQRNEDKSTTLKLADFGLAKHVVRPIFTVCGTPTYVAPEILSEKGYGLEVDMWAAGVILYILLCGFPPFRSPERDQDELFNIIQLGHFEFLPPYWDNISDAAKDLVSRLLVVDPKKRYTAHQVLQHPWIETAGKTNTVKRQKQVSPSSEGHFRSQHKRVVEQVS

[3] = biological target: T2, Serine/threonine-protein kinase Sgk1 (Homo sapiens) (UniProt O00141); assay: Selectivity interaction (KinomeScan (DiscoverX)) EUB0000695a SGK1; conditions: at 100 nM
T2 sequence (whole entry): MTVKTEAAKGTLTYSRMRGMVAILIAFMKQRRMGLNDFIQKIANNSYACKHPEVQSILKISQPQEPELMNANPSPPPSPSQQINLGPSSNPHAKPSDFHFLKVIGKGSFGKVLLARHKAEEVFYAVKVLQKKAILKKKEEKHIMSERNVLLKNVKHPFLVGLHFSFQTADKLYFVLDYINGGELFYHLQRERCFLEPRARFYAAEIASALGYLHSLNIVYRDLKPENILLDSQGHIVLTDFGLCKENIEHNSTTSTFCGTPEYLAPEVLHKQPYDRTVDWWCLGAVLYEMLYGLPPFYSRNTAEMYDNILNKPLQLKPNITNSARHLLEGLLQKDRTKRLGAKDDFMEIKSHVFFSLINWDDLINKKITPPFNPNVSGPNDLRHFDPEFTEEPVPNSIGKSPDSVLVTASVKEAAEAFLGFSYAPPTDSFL

[4] = biological target: Ribosomal protein S6 kinase alpha-4 (Homo sapiens) (UniProt O75676); assay: Selectivity interaction (Kinase panel (Z-LYTE Assay)) EUB0001632a RPS6KA4; conditions: at 10 µM
[5] = biological target: Receptor tyrosine-protein kinase erbB-4 (Homo sapiens, UniProt Q15303); assay: Selectivity interaction (Kinase panel (Z-LYTE Assay)) EUB0001632a ERBB4; conditions: at 10 µM
[6] = biological target: Serine/threonine-protein kinase 38-like (Homo sapiens) (UniProt Q9Y2H1); assay: Selectivity interaction (KinomeScan (DiscoverX)) EUB0000666a STK38L; conditions: at 10 µM
[7] = biological target: Citron Rho-interacting kinase (Homo sapiens) (UniProt O14578); conditions: at 10 µM
[8] = biological target: Mitogen-activated protein kinase 8 (Homo sapiens, UniProt P45983); assay: Selectivity interaction (KinomeScan (DiscoverX)) EUB0001049a MAPK8; conditions: at 1 µM
[9] = biological target: Tyrosine-protein kinase ABL1 (Homo sapiens, UniProt P00519); assay: Selectivity interaction (KinomeScan (DiscoverX)) EUB0000655a ABL1; conditions: at 10 µM
[10] = biological target: T3, Dual specificity mitogen-activated protein kinase kinase 5 (Homo sapiens) (UniProt Q13163); assay: Selectivity interaction (KinomeScan (DiscoverX)) EUB0000092b MAP2K5; conditions: at 10 µM
T3 sequence (whole entry): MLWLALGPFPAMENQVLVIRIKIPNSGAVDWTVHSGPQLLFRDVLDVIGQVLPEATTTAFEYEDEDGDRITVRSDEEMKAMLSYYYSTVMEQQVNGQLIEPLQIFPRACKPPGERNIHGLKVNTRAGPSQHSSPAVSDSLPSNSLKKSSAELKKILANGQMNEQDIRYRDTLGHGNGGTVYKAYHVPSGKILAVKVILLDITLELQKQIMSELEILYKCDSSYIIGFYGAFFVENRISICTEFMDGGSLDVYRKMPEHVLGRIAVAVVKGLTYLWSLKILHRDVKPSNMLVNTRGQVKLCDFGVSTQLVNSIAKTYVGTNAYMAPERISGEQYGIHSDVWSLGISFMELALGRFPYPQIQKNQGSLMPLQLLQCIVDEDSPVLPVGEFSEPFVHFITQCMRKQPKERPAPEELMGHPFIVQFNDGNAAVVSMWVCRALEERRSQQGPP

[11] = test system: Phosphatidylinositol 4,5-bisphosphate 3-kinase catalytic subunit alpha isoform (Homo sapiens), P42336 [E545K]; assay: (§1) Selectivity interaction (KinomeScan (DiscoverX)) EUB0000092b PIK3CA; conditions: at 10 µM
[12] = test system: Phosphatidylinositol 4,5-bisphosphate 3-kinase catalytic subunit alpha isoform (Homo sapiens), P42336 [Q546K]; assay: as §1; conditions: at 10 µM
[13] = test system: Phosphatidylinositol 4,5-bisphosphate 3-kinase catalytic subunit alpha isoform (Homo sapiens), P42336 [H1047L]; assay: as §1; conditions: at 10 µM
[14] = test system: Phosphatidylinositol 4,5-bisphosphate 3-kinase catalytic subunit alpha isoform (Homo sapiens), P42336 [E545A]; assay: as §1; conditions: at 10 µM
[15] = test system: Phosphatidylinositol 4,5-bisphosphate 3-kinase catalytic subunit alpha isoform (Homo sapiens), P42336 [C420R]; assay: as §1; conditions: at 10 µM
[16] = test system: Phosphatidylinositol 4,5-bisphosphate 3-kinase catalytic subunit alpha isoform (Homo sapiens), P42336 [M1043I]; assay: as §1; conditions: at 10 µM
[17] = test system: Phosphatidylinositol 4,5-bisphosphate 3-kinase catalytic subunit alpha isoform (Homo sapiens), P42336 [E542K]; assay: as §1; conditions: at 10 µM

Chain of Mitogen-activated protein kinase 8 (P45983 whole entry): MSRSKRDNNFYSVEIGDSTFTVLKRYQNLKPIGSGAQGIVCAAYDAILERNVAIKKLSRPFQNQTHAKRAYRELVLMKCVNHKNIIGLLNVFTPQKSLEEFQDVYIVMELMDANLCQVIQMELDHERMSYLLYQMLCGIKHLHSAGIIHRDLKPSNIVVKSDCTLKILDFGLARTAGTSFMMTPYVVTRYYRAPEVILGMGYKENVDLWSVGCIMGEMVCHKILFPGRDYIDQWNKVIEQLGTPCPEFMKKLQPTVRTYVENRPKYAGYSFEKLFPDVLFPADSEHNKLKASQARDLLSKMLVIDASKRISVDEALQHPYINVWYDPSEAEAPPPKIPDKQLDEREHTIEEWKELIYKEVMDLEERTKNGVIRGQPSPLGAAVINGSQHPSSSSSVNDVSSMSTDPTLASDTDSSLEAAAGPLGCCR
Chain of Phosphatidylinositol 4,5-bisphosphate 3-kinase catalytic subunit alpha isoform (Homo sapiens), P42336 [E545K] (P42336 whole entry E545K, canonical isoform): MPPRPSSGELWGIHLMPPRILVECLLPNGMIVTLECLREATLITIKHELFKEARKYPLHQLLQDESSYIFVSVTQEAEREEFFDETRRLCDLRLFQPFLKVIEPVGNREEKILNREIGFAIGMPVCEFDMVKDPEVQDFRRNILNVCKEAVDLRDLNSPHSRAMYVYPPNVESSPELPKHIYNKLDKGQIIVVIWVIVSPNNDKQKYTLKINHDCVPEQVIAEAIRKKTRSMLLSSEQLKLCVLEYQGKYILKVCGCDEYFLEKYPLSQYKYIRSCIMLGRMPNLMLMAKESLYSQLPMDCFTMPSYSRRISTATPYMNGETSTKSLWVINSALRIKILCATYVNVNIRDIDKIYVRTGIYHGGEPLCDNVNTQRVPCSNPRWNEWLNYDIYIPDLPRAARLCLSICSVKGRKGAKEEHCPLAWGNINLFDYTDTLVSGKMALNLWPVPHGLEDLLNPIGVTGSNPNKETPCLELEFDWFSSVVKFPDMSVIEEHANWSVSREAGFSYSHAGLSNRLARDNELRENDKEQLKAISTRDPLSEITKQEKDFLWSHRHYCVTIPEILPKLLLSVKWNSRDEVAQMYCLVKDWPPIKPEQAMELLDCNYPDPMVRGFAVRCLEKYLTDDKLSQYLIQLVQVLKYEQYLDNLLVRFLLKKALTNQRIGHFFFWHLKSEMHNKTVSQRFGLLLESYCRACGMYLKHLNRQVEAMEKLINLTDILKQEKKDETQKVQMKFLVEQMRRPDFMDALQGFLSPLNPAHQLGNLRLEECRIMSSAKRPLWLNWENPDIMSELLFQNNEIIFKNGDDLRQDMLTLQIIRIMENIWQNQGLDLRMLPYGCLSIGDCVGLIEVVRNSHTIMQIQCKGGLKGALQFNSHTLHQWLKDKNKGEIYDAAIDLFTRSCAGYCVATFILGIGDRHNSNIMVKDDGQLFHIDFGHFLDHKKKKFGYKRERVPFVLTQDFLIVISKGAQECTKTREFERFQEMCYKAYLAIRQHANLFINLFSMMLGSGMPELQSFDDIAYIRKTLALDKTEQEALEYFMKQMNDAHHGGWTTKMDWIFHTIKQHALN
Chain of Phosphatidylinositol 4,5-bisphosphate 3-kinase catalytic subunit alpha isoform (Homo sapiens), P42336 [Q546K] (P42336 whole entry Q546K, canonical isoform): as the sequence (P42336 whole entry E545K, canonical isoform) above, with K545E, Q546K counted along it
Chain of Tyrosine-protein kinase ABL1 (P00519 whole entry): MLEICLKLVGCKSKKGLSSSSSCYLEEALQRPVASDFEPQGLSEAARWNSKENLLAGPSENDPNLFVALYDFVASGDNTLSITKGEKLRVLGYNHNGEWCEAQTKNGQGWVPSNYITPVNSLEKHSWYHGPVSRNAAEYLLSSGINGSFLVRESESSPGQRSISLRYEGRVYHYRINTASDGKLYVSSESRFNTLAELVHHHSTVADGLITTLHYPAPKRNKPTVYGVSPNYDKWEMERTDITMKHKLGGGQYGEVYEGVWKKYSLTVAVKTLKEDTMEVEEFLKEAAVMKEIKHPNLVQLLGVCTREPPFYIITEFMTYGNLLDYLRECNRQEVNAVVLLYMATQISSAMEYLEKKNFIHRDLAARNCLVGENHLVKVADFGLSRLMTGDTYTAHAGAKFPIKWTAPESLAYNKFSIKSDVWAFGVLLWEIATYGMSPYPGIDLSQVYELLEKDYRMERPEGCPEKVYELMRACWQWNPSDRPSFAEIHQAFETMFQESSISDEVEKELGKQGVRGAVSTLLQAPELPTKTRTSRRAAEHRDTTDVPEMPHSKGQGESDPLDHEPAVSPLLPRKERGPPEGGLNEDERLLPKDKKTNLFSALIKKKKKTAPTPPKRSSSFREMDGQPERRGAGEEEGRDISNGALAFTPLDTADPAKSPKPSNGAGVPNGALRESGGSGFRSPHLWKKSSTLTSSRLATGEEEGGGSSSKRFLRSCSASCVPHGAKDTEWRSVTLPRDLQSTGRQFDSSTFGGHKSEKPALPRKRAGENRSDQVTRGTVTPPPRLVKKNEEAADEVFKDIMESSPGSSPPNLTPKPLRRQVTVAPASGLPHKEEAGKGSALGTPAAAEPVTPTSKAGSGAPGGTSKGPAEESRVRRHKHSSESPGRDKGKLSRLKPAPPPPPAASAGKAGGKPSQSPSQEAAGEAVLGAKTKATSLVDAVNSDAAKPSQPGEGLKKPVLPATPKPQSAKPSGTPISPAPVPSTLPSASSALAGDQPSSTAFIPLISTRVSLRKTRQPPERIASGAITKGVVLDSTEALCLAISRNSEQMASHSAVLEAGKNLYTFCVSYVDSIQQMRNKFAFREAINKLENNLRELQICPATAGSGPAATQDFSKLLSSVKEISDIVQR
Chain of Macrophage-stimulating protein receptor (Q04912 25-304 limits assumed): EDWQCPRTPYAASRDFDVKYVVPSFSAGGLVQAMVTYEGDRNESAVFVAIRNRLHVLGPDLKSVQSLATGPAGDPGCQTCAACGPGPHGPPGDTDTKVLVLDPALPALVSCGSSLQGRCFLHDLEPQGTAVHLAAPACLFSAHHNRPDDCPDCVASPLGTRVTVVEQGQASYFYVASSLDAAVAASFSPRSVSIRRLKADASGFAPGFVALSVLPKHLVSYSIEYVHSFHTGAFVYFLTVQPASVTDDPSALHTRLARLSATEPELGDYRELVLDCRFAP
Chain of Macrophage-stimulating protein receptor (Q04912 310-1400 limits assumed): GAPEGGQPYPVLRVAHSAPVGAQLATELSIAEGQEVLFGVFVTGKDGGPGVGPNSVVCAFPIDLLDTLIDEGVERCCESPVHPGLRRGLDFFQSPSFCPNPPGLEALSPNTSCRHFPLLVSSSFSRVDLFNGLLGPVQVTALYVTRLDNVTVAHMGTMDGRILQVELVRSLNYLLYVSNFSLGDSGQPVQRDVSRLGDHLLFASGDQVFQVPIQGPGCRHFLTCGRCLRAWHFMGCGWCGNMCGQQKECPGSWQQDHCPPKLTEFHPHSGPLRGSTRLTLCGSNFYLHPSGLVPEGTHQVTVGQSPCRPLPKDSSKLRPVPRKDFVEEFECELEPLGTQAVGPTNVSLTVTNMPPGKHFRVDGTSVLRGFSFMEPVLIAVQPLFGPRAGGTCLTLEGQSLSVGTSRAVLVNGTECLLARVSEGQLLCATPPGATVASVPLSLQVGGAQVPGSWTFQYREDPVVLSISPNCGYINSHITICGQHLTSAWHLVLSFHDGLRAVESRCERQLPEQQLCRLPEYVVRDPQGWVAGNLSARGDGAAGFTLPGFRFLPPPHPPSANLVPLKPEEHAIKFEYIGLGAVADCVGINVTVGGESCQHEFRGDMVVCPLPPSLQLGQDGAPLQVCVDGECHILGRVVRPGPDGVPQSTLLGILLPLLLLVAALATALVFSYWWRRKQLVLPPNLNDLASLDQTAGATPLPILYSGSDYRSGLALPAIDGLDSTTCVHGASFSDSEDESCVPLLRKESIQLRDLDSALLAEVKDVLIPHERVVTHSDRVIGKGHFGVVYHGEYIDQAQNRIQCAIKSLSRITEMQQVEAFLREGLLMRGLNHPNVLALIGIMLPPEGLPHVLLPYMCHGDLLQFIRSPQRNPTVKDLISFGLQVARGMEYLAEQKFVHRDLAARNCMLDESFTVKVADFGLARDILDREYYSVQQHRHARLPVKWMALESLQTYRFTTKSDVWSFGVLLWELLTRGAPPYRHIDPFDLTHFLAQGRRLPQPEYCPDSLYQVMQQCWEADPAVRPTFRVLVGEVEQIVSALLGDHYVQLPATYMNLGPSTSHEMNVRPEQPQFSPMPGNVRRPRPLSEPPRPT

Compound: COCC(=O)NC/C=C/c1ccc2ncnc(Nc3ccc(Oc4ccc(C)nc4)c(C)c3)c2c1 [CP-724714]
- % of control [1]: 100%

Compound: C=CC(=O)Nc1cc(-n2c(=O)ccc3cnc4ccc(-c5ccc(NS(C)(=O)=O)cc5)cc4c32)ccc1C
- % of control ([2]; at 1 µM): 94%
- % of control ([2]; at 10 µM): 78%

Compound: Cc1cc(F)c(C(=O)Nc2cccc(-c3nncn3C(C)C)n2)cc1-n1cnc(C2CC2)c1
- % of control [3]: 90%

Compound: Cn1cc(-n2cnc3c(NCc4nc5cc(Cl)c(Cl)cc5[nH]4)nc(N4CCOCC4)nc32)cn1
- % of control [4]: 0.55%
- % of control [5]: -13.3%

Compound: O=C(NOC[C@H](O)CO)c1ccc(F)c(F)c1Nc1ccc(I)cc1F
- % of control [6]: 100%

Compound: Cc1cc([C@@H](C)Nc2ccccc2C(=O)O)c2nc(N3CCOCC3)cc(=O)n2c1 [AZD-6482]
- % of control [7]: 89%

Compound: COc1cc(Nc2nc(C)cc(-c3cnn4nc(OC)ccc34)n2)cc(C(F)(F)F)c1
- % of control [8]: 88%

Compound: CN(C)CCOc1ccc(-c2nc(-c3ccncc3)c(-c3ccc4c(c3)CC/C4=N\O)[nH]2)cc1
- % of control [9]: 6%

Compound: CCC(=O)N1CCN(c2ccc(-n3c(=O)ccc4cnc5ccc(-c6cnc7ccccc7c6)cc5c43)cc2C(F)(F)F)CC1
- % of control [10]: 100%
- % of control [11]: 0.6%
- % of control [12]: 6.8%
- % of control [13]: 2.6%
- % of control [14]: 1%
- % of control [15]: 0.7%
- % of control [16]: 8.6%
- % of control [17]: 1%
